{"source": "paper PMC10247784", "about": "“Physiological activation of human and mouse bitter taste receptors by bile acids” (Communications Biology, 2023)", "key": {"[1]": {"test_system": "HEK293T-Gα16gust44 cells transfected with empty vector (mock)", "assay": "Calcium imaging assay (FLIPR), empty vector control (mock)", "assay_type": "cell-based", "description": "This set of bile acids was chosen because of their commercial availability in high purities, their diversity within the class of bile acids and their previous detection and quantitation in human blood. Stock solutions were prepared in DMSO.\nAs basal growth medium for the HEK293T-Gα16gust44 cell line[17],[59] served Dulbecco’s modified eagle medium (DMEM) (Thermo Fisher Scientific, Darmstadt, Germany) supplemented with 10 % fetal bovine serum (Sigma-Aldrich, Steinheim, Germany), 2 mM L-glutamine (Sigma-Aldrich, Steinheim, Germany), 100 units/ml penicillin (Sigma Aldrich, Steinheim, Germany) and 100 µg/ml streptomycin (Sigma Aldrich, Steinheim, Germany). Growth conditions were 37 °C, 5 % CO2 and saturated air-humidity[60].\nHEK293T-Gα16gust44 cells were seeded on poly-D-lysine (10 µg/ml) coated 96-well plates to reach a confluence of 40-60 % the next day. For transient transfection 150 ng of plasmid DNA containing the receptor of interest and 0.3 µl lipofectamine 2000 (Thermo Fisher Scientific, Darmstadt, Germany) per well were used and transfection took place according to the manual of lipofectamine 2000. […] The empty vector DNA (mock) was transfected as negative control[14],[41].\nCells were loaded using the calcium-sensitive fluorescent dye Fluo-4-AM (Abcam, Cambridge, Great Britain) in the presence of 2.5 mM probenecid (Sigma-Aldrich, Steinheim, Germany) the day after transfection[13],[41]. 1 h after loading, cells were washed with C1 buffer using a BioTek Cell Washer, incubated in the dark for half an hour and washed again. For automated agonist application and measurement of fluorescence changes, a FLIPR^TETRA device (Molecular Devices, San José, United States) was used. Viability of cells was tested by application of 100 nM Somatostatin 14 (Bachem, Bubendorf, Switzerland)[42].\nMeasured data were negative control corrected by subtracting the signal of the mock-transfected cells and exported to Microsoft Excel using the FLIPR software ScreenWorks 4.2. In Microsoft Excel software, standardization of maximum fluorescence intensities to the basal fluorescence and normalization to the buffer-only control was done to calculate the relative fluorescence changes (ΔF/F).\nInitial screening experiments performed in duplicate wells were confirmed by at least one replication and representative traces were selected for display. All dose-response relationships were determined by three independent experiments (biological replicates) performed in duplicates (technical replicates). Threshold concentrations, defined as lowest substance concentrations leading to statistically significant elevated fluorescence changes in receptor-transfected cells compared with empty vector-transfected cells, were determined using SigmaPlot with Student’s t-test to evaluate statistical significance (p < 0.01)."}, "[2]": {"test_system": "T2R02 of Latimeria chalumnae", "design": "method as in PMID 33355666", "settings": "cited from earlier work"}}, "data": [{"molecule": "C[C@H](CCC(=O)NCC(=O)O)[C@H]1CC[C@H]2[C@@H]3[C@H](O)C[C@@H]4C[C@H](O)CC[C@]4(C)[C@H]3C[C@H](O)[C@]12C", "note": "[Glycocholic Acid, glycocholic acid]", "values": [{"measurement": "Δ F/F", "setting": "[1]; Conc. 0,01 mM, Mock (sheet TAS2R39)", "result": -0.01548}, {"measurement": "Δ F/F", "setting": "[1]; Conc. 0,1 mM, Mock (sheet TAS2R39)", "result": -0.02609}, {"measurement": "Δ F/F", "setting": "[1]; Conc. 0,03 mM, Mock (sheet TAS2R39)", "result": -0.02235}, {"measurement": "Δ F/F", "setting": "[1]; Conc. 0,3 mM, Mock (sheet TAS2R39)", "result": -0.04919}, {"measurement": "Δ F/F", "setting": "[1]; Conc. 0,001 mM, Mock (sheet TAS2R39)", "result": -0.01811}, {"measurement": "Δ F/F", "setting": "[1]; Conc. 1 mM, Mock (sheet TAS2R39)", "result": -0.07251}, {"measurement": "Δ F/F", "setting": "[1]; Conc. 0,003 mM, Mock (sheet TAS2R39)", "result": -0.02014}, {"measurement": "Δ F/F", "setting": "[1]; Mock (sheet Tas2r123), conc. 0,01 mM", "result": -0.001257}, {"measurement": "Δ F/F", "setting": "[1]; Mock (sheet Tas2r123), conc. 0,1 mM", "result": -0.001605}, {"measurement": "Δ F/F", "setting": "[1]; Mock (sheet Tas2r123), conc. 0,03 mM", "result": -0.001376}, {"measurement": "Δ F/F", "setting": "[1]; Mock (sheet Tas2r123), conc. 0,3 mM", "result": 0.0005119}, {"measurement": "Δ F/F", "setting": "[1]; Mock (sheet Tas2r123), conc. 0,001 mM", "result": -0.001339}, {"measurement": "Δ F/F", "setting": "[1]; Mock (sheet Tas2r123), conc. 0,003 mM", "result": -0.001948}, {"measurement": "Δ F/F", "setting": "[1]; Mock (sheet Tas2r126), conc. 0,01 mM", "result": -0.0096}, {"measurement": "Δ F/F", "setting": "[1]; Mock (sheet Tas2r126), conc. 0,1 mM", "result": -0.02403}, {"measurement": "Δ F/F", "setting": "[1]; Mock (sheet Tas2r126), conc. 0,03 mM", "result": -0.01217}, {"measurement": "Δ F/F", "setting": "[1]; Mock (sheet Tas2r126), conc. 0,3 mM", "result": -0.03338}, {"measurement": "Δ F/F", "setting": "[1]; Mock (sheet Tas2r126), conc. 0,001 mM", "result": -0.01229}, {"measurement": "Δ F/F", "setting": "[1]; Mock (sheet Tas2r126), conc. 1 mM", "result": -0.06654}, {"measurement": "Δ F/F", "setting": "[1]; Mock (sheet Tas2r126), conc. 0,003 mM", "result": -0.01228}, {"measurement": "Δ F/F", "setting": "[1]; Mock (sheet Tas2r144), conc. 0,01 mM", "result": 0.0008421}, {"measurement": "Δ F/F", "setting": "[1]; Mock (sheet Tas2r144), conc. 0,1 mM", "result": 0.001148}, {"measurement": "Δ F/F", "setting": "[1]; Mock (sheet Tas2r144), conc. 0,03 mM", "result": "-3.983e-5"}, {"measurement": "Δ F/F", "setting": "[1]; Mock (sheet Tas2r144), conc. 0,3 mM", "result": 0.0006824}, {"measurement": "Δ F/F", "setting": "[1]; Mock (sheet Tas2r144), conc. 0,003 mM", "result": 0.002307}, {"measurement": "Δ F/F", "setting": "[1]; Mock, sheet TAS2R4, conc. 0,01 mM", "result": -0.0004971}, {"measurement": "Δ F/F", "setting": "[1]; Mock, sheet TAS2R4, conc. 0,1 mM", "result": -0.0007383}, {"measurement": "Δ F/F", "setting": "[1]; Mock, sheet TAS2R4, conc. 0,03 mM", "result": -0.0008538}, {"measurement": "Δ F/F", "setting": "[1]; Mock, sheet TAS2R4, conc. 0,3 mM", "result": "3.213e-5"}, {"measurement": "Δ F/F", "setting": "[1]; Mock, sheet TAS2R4, conc. 0,001 mM", "result": -0.0002133}, {"measurement": "Δ F/F", "setting": "[1]; Mock, sheet TAS2R4, conc. 0,003 mM", "result": "-6.081e-5"}, {"measurement": "Δ F/F", "setting": "[1]; Mock, sheet TAS2R14, conc. 0,01 mM", "result": -0.01698}, {"measurement": "Δ F/F", "setting": "[1]; Mock, sheet TAS2R14, conc. 0,1 mM", "result": -0.02625}, {"measurement": "Δ F/F", "setting": "[1]; Mock, sheet TAS2R14, conc. 0,03 mM", "result": -0.01883}, {"measurement": "Δ F/F", "setting": "[1]; Mock, sheet TAS2R14, conc. 0,3 mM", "result": -0.03707}, {"measurement": "Δ F/F", "setting": "[1]; Mock, sheet TAS2R14, conc. 0,001 mM", "result": -0.0212}, {"measurement": "Δ F/F", "setting": "[1]; Mock, sheet TAS2R14, conc. 1 mM", "result": -0.05126}, {"measurement": "Δ F/F", "setting": "[1]; Mock, sheet TAS2R14, conc. 0,003 mM", "result": -0.01715}, {"measurement": "Δ F/F", "setting": "[1]; Mock, sheet TAS2R46, conc. 0,01 mM", "result": -0.02275}, {"measurement": "Δ F/F", "setting": "[1]; Mock, sheet TAS2R46, conc. 0,1 mM", "result": -0.03044}, {"measurement": "Δ F/F", "setting": "[1]; Mock, sheet TAS2R46, conc. 0,03 mM", "result": -0.02768}, {"measurement": "Δ F/F", "setting": "[1]; Mock, sheet TAS2R46, conc. 0,3 mM", "result": -0.0463}, {"measurement": "Δ F/F", "setting": "[1]; Mock, sheet TAS2R46, conc. 0,001 mM", "result": -0.02143}, {"measurement": "Δ F/F", "setting": "[1]; Mock, sheet TAS2R46, conc. 1 mM", "result": -0.07983}, {"measurement": "Δ F/F", "setting": "[1]; Mock, sheet TAS2R46, conc. 0,003 mM", "result": -0.02717}, {"measurement": "Δ F/F", "setting": "[1]; Mock, sheet Tas2r105, conc. 0,01 mM", "result": -0.01859}, {"measurement": "Δ F/F", "setting": "[1]; Mock, sheet Tas2r105, conc. 0,1 mM", "result": -0.0309}, {"measurement": "Δ F/F", "setting": "[1]; Mock, sheet Tas2r105, conc. 0,03 mM", "result": -0.02007}, {"measurement": "Δ F/F", "setting": "[1]; Mock, sheet Tas2r105, conc. 0,3 mM", "result": -0.05122}, {"measurement": "Δ F/F", "setting": "[1]; Mock, sheet Tas2r105, conc. 0,001 mM", "result": -0.01558}, {"measurement": "Δ F/F", "setting": "[1]; Mock, sheet Tas2r105, conc. 1 mM", "result": -0.09069}, {"measurement": "Δ F/F", "setting": "[1]; Mock, sheet Tas2r105, conc. 0,003 mM", "result": -0.01717}, {"measurement": "Δ F/F", "setting": "[1]; Mock, sheet Tas2r108, conc. 0,01 mM", "result": -0.01889}, {"measurement": "Δ F/F", "setting": "[1]; Mock, sheet Tas2r108, conc. 0,1 mM", "result": -0.02753}, {"measurement": "Δ F/F", "setting": "[1]; Mock, sheet Tas2r108, conc. 0,03 mM", "result": -0.02185}, {"measurement": "Δ F/F", "setting": "[1]; Mock, sheet Tas2r108, conc. 0,3 mM", "result": -0.04768}, {"measurement": "Δ F/F", "setting": "[1]; Mock, sheet Tas2r108, conc. 0,001 mM", "result": -0.0151}, {"measurement": "Δ F/F", "setting": "[1]; Mock, sheet Tas2r108, conc. 1 mM", "result": -0.06489}, {"measurement": "Δ F/F", "setting": "[1]; Mock, sheet Tas2r108, conc. 0,003 mM", "result": -0.01714}, {"measurement": "Δ F/F", "setting": "[1]; Mock, sheet Tas2r117, conc. 0,01 mM", "result": -0.001257}, {"measurement": "Δ F/F", "setting": "[1]; Mock, sheet Tas2r117, conc. 0,1 mM", "result": -0.001605}, {"measurement": "Δ F/F", "setting": "[1]; Mock, sheet Tas2r117, conc. 0,03 mM", "result": -0.001376}, {"measurement": "Δ F/F", "setting": "[1]; Mock, sheet Tas2r117, conc. 0,3 mM", "result": 0.0005119}, {"measurement": "Δ F/F", "setting": "[1]; Mock, sheet Tas2r117, conc. 0,0003 mM", "result": -0.001061}, {"measurement": "Δ F/F", "setting": "[1]; Mock, sheet Tas2r117, conc. 0,001 mM", "result": -0.001339}, {"measurement": "Δ F/F", "setting": "[1]; Mock, sheet Tas2r117, conc. 0,003 mM", "result": -0.001948}, {"measurement": "Δ F/F", "setting": "[1]; conc. 0,01 mM, Mock (sheet TAS2R1)", "result": -0.001476}, {"measurement": "Δ F/F", "setting": "[1]; conc. 0,1 mM, Mock (sheet TAS2R1)", "result": -0.002206}, {"measurement": "Δ F/F", "setting": "[1]; conc. 0,03 mM, Mock (sheet TAS2R1)", "result": -0.001334}, {"measurement": "Δ F/F", "setting": "[1]; conc. 0,3 mM, Mock (sheet TAS2R1)", "result": 0.00174}, {"measurement": "Δ F/F", "setting": "[1]; conc. 0,001 mM, Mock (sheet TAS2R1)", "result": -0.0005627}, {"measurement": "Δ F/F", "setting": "[1]; conc. 0,003 mM, Mock (sheet TAS2R1)", "result": 0.0001343}, {"measurement": "Activation of T2R02", "setting": "[2]", "result": "activate"}]}]}
